# Test results published in patent publication US20250115569A1, “SULFONAMIDE COMPOUNDS FOR THE TREATMENT OF NEUROLOGICAL CONDITIONS” (LARIO THERAPEUTICS LIMITED, priority 2021, published 2025).
# Target: Cav2.3 (Homo sapiens, UniProt Q15878)
# Experiment: Human Cav2.3 channel calcium-influx assay
# Format: cell-based
# Conditions: Fluo8 fluorescence, HEK-293 T-Rex/Kir2.1/Cav2.3e cells, without pluronic acid, read-out: Cav2.3 (pIC50) (converted)
# Summary of the method: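 HEK-293 T-Rex/Kir2.1 cells with doxycycline (0.2 μg/mL)-inducible Cav2.3e plus Cavβ4-α2δ1, loaded with Fluo8 NW in 0 mM K+ Tyrode's. Compounds (8 points, top 30 μM, half-log, 0.3% final DMSO, n=4) preincubated 3 min at RT, then depolarized with 20 mM KCl/2 mM CaCl2 (final); fluorescence read 130 s.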
# Sequence of Cav2.3 (Q15878 whole entry, looked up): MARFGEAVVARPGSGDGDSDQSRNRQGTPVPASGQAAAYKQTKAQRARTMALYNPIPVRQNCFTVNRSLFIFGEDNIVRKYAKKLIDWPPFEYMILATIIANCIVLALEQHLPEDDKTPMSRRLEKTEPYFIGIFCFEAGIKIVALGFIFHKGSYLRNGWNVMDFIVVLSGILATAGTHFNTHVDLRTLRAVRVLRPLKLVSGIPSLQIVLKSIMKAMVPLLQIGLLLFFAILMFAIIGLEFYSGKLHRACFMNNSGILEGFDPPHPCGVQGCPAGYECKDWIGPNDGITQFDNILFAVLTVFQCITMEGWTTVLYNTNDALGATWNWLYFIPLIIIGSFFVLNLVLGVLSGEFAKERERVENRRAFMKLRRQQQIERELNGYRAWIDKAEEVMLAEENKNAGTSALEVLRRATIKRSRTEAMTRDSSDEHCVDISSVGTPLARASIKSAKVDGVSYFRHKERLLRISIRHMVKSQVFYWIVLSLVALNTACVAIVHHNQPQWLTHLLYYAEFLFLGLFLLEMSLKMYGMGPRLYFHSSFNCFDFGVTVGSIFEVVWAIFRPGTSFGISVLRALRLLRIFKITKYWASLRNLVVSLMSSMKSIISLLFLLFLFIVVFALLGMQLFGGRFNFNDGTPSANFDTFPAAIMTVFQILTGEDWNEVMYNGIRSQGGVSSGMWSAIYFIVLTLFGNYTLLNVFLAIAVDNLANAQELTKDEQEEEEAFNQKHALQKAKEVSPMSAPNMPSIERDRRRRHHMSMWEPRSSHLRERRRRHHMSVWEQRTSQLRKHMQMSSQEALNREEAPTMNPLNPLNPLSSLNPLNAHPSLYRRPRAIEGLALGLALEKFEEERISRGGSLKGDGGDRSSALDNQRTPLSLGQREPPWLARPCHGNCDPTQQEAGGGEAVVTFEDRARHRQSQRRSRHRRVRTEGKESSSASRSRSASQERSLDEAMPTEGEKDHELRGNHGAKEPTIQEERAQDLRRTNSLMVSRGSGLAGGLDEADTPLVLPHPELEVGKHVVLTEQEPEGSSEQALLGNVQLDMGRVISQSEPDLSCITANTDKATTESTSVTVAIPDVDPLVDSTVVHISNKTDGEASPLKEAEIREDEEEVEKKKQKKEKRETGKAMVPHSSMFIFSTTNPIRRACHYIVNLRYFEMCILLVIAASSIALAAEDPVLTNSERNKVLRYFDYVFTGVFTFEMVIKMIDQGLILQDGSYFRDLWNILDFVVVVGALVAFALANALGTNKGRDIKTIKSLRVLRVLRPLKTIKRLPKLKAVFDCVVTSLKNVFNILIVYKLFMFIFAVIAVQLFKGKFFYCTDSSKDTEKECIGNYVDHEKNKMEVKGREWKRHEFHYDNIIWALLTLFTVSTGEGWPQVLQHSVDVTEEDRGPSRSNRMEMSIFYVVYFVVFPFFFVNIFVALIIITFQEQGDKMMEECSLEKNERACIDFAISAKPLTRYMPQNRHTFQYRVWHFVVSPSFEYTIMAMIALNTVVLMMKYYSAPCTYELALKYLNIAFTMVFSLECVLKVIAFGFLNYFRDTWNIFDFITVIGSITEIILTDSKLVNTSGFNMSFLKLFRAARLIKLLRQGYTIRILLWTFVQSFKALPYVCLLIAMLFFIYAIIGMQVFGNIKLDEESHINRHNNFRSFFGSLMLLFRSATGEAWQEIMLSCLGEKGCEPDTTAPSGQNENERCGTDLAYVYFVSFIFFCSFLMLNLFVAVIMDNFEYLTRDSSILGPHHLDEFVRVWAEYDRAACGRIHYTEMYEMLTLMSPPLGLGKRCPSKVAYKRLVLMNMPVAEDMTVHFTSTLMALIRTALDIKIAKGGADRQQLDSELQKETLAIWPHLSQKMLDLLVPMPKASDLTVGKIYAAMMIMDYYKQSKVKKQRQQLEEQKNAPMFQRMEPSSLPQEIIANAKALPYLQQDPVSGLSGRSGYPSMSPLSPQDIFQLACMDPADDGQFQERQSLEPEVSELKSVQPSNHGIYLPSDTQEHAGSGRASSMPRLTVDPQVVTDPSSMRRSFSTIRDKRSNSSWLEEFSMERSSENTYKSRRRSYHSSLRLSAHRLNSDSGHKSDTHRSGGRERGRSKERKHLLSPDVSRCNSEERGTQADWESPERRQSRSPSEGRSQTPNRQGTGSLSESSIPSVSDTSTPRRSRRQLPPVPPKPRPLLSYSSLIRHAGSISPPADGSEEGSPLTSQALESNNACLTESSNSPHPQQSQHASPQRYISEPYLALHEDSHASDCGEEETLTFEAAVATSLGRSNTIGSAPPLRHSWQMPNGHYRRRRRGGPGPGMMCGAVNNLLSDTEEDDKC
row,Compound,IC50 [nM]
1,"COc1ccc([C@H](N(C)S(=O)(=O)C2CCOCC2)C(F)(F)F)cc1 [Example 128, (S)—N-methyl-N-(2,2,2-trifluoro-1-(4-methoxyphenyl)ethyl)tetrahydro-2H-pyran-4-sulfonamide]",14100
2,"CCN([C@@H](c1ccc(OC(F)(F)F)cc1)C(F)(F)F)S(=O)(=O)c1cncc(C#N)c1 [Example 118, (S)-5-Cyano-N-ethyl-N-(2,2,2-trifluoro-1-(4-(trifluoromethoxy)phenyl)ethyl)pyridine-3-sulfonamide]",5620
3,"CCN(C(c1ccc(F)cc1)C(F)(F)F)S(=O)(=O)c1ccc(C#N)s1 (stereo not shown) [Example 21, 5-cyano-N-ethyl-N-(2,2,2-trifluoro-1-(4-fluorophenyl)ethyl)thiophene-2-sulfonamide]",437
4,"CCN(C(c1ccc(F)cc1)C(F)(F)F)S(=O)(=O)c1cncc(C(N)=O)c1 (stereo in doubt) [Example 53, (R)-5-(N-ethyl-N-(2,2,2-trifluoro-1-(4-fluorophenyl)ethyl)sulfamoyl)nicotinamide]",1780
5,"CCN([C@H](c1ccc(F)cc1)C(F)(F)F)S(=O)(=O)c1cnc2ncsc2c1 [Example 151, (R)—N-ethyl-N-(2,2,2-trifluoro-1-(4-fluorophenyl)ethyl)thiazolo[4,5-b]pyridine-6-sulfonamide]",170
6,"CCN([C@H](c1ccc(F)cc1)C(F)(F)F)S(=O)(=O)c1cnc2nc[nH]c2c1 [Example 156, (R)—N-ethyl-N-(2,2,2-trifluoro-1-(4-fluorophenyl)ethyl)-1H-imidazo[4,5-b]pyridine-6-sulfonamide]",204
7,"CCN(C(c1ccc(F)cc1)C(F)(F)F)S(=O)(=O)c1cncc(C(N)=O)c1 (stereo not shown) [Example 51, 5-(N-ethyl-N-(2,2,2-trifluoro-1-(4-fluorophenyl)ethyl)sulfamoyl)nicotinamide]",372
8,"CCN(C(c1ccc(F)cc1)C(F)(F)F)S(=O)(=O)c1cncc(C2COC2)c1 (stereo not shown) [Example 99, N-ethyl-5-(oxetan-3-yl)-N-(2,2,2-trifluoro-1-(4-fluorophenyl)ethyl)pyridine-3-sulfonamide]",275
9,"CN([C@H](c1ccc(F)cc1)C(F)(F)F)S(=O)(=O)c1ccc(F)s1 (stereo in doubt) [Example 19, 5-fluoro-N-methyl-N-(2,2,2-trifluoro-1-(4-fluorophenyl)ethyl)thiophene-2-sulfonamide]",2400
10,"CCN(C(c1ccc(Cl)cc1)C(F)(F)F)S(=O)(=O)c1cncc(C#N)c1 (stereo not shown) [Example 54, N-(1-(4-chlorophenyl)-2,2,2-trifluoroethyl)-5-cyano-N-ethylpyridine-3-sulfonamide]",37.2
11,"CCN([C@H](c1ccc(F)cc1)C(F)(F)F)S(=O)(=O)c1ccn2ncnc2c1 [Example 137, (R)—N-ethyl-N-(2,2,2-trifluoro-1-(4-fluorophenyl)ethyl)-[1,2,4]triazolo[1,5-a]pyridine-7-sulfonamide]",72.4
12,"COc1ccc([C@@H](N(C)S(=O)(=O)C2CCOCC2)C(F)(F)F)cc1 [Example 129, (R)—N-methyl-N-(2,2,2-trifluoro-1-(4-methoxyphenyl)ethyl)tetrahydro-2H-pyran-4-sulfonamide]",1170
13,"CN(C(c1ccc(F)cc1)C(F)(F)F)S(=O)(=O)c1ccc(Cl)s1 (stereo not shown) [Example 1, 5-chloro-N-methyl-N-(2,2,2-trifluoro-1-(4-fluorophenyl)ethyl)thiophene-2-sulfonamide]",8910
14,"CCN(C(c1ccc(F)cc1)C(F)(F)F)S(=O)(=O)c1ccc(=O)n(C)c1 (stereo not shown) [Example 100, N-ethyl-1-methyl-6-oxo-N-(2,2,2-trifluoro-1-(4-fluorophenyl)ethyl)-1,6-dihydropyridine-3-sulfonamide]",380
15,"CCN([C@H](c1ccc(F)cc1)C(F)(F)F)S(=O)(=O)c1ccc2sc(N)nc2c1 [Example 155, (R)-2-amino-N-ethyl-N-(2,2,2-trifluoro-1-(4-fluorophenyl)ethyl)benzo[d]thiazole-5-sulfonamide]",1910
16,"CCN([C@H](c1ccc(F)cc1)C(F)(F)F)S(=O)(=O)c1ccc2nc(C)c(Cl)n2n1 [Example 157, (R)-3-chloro-N-ethyl-2-methyl-N-(2,2,2-trifluoro-1-(4-fluorophenyl)ethyl)imidazo[1,2-b]pyridazine-6-sulfonamide]",3020
17,"CCN([C@H](c1ccc(F)cc1)C(F)(F)F)S(=O)(=O)c1nc2ccccn2n1 [Example 153, (R)—N-ethyl-N-(2,2,2-trifluoro-1-(4-fluorophenyl)ethyl)-[1,2,4]triazolo[1,5-a]pyridine-2-sulfonamide]",1580
18,"CCN(C(c1ccc(F)cc1)C(F)(F)F)S(=O)(=O)c1cncc(C(C)=O)c1 (stereo not shown) [Example 120, 5-acetyl-N-ethyl-N-(2,2,2-trifluoro-1-(4-fluorophenyl)ethyl)pyridine-3-sulfonamide]",132
19,CCN([C@H](c1ccc(F)cc1)C(F)(F)F)S(=O)(=O)c1cnc(C#N)s1 [Example 84],871
20,"CCN(C(c1ccc(F)cc1)C(F)(F)F)S(=O)(=O)c1cnc(C#N)s1 (stereo not shown) [Example 82, 2-Cyano-N-ethyl-N-(2,2,2-trifluoro-1-(4-fluorophenyl)ethyl)thiazole-5-sulfonamide]",912

# Continued, values first:
row,IC50 [nM],Compound
1,155,"CCN([C@H](c1ccc(F)cc1)C(F)(F)F)S(=O)(=O)c1ccc2nc[nH]c2c1 [Example 185, (R)—N-ethyl-N-(2,2,2-trifluoro-1-(4-fluorophenyl)ethyl)-1H-benzo[d]imidazole-6-sulfonamide]"
2,759,"CN([C@H](c1ccc(Cl)cc1)C(F)(F)F)S(=O)(=O)c1cc2nncn2cn1 [Example 204, (R)—N-(1-(4-chlorophenyl)-2,2,2-trifluoroethyl)-N-methyl-[1,2,4]triazolo[4,3-c]pyrimidine-7-sulfonamide]"
3,324,"CCN([C@H](c1ccc(F)cc1)C(F)(F)F)S(=O)(=O)c1cn2ccnc2cn1 [Example 198, (R)—N-ethyl-N-(2,2,2-trifluoro-1-(4-fluorophenyl)ethyl)imidazo[1,2-a]pyrazine-6-sulfonamide]"
4,162,"CCN([C@H](c1ccc(C(F)(F)F)c(C)c1)C(F)(F)F)S(=O)(=O)c1cncc(F)c1 [Example 271, (R)—N-ethyl-5-fluoro-N-(2,2,2-trifluoro-1-(3-methyl-4-(trifluoromethyl)phenyl)ethyl)pyridine-3-sulfonamide]"
5,490,"Cc1cc([C@@H](N(C)S(=O)(=O)c2cncc(F)c2)C(F)(F)F)ccc1C(F)(F)F [Example 270, (R)-5-fluoro-N-methyl-N-(2,2,2-trifluoro-1-(3-methyl-4-(trifluoromethyl)phenyl)ethyl)pyridine-3-sulfonamide]"
6,537,"CCN([C@H](c1ccc(F)cc1)C(F)(F)F)S(=O)(=O)c1cc2cc[nH]c2cn1 [Example 181, (R)—N-ethyl-N-(2,2,2-trifluoro-1-(4-fluorophenyl)ethyl)-1H-pyrrolo[2,3-c]pyridine-5-sulfonamide]"
7,91.2,"CCN([C@H](c1ccc(F)cc1)C(F)(F)F)S(=O)(=O)c1cnc2cccnn12 [Example 176, (R)—N-ethyl-N-(2,2,2-trifluoro-1-(4-fluorophenyl)ethyl)imidazo[1,2-b]pyridazine-3-sulfonamide]"
8,155,"CN(C(c1ccc(F)cc1)C(F)(F)F)S(=O)(=O)c1cncc(C#N)c1 (racemic) [Example 272, 5-Cyano-N-methyl-N-(2,2,2-trifluoro-1-(4-fluorophenyl)ethyl)pyridine-3-sulfonamide]"
9,11200,"CCN([C@H](c1ccc(F)cc1)C(F)(F)F)S(=O)(=O)c1nn(CC)c2cccnc12 [Example 173, (R)—N,1-diethyl-N-(2,2,2-trifluoro-1-(4-fluorophenyl)ethyl)-1H-pyrazolo[4,3-b]pyridine-3-sulfonamide]"
10,309,"CCN([C@H](c1ccc(F)cc1)C(F)(F)F)S(=O)(=O)c1ccc2[nH]ncc2n1 [Example 188, (R)—N-ethyl-N-(2,2,2-trifluoro-1-(4-fluorophenyl)ethyl)-1H-pyrazolo[4,3-b]pyridine-5-sulfonamide]"
11,30.2,"CCN([C@H](c1ccc(C(F)(F)F)cc1)C(F)(F)F)S(=O)(=O)c1cnc2ccccn12 [Example 237, (R)—N-ethyl-N-(2,2,2-trifluoro-1-(4-(trifluoromethyl)phenyl)ethyl)imidazo[1,2-a]pyridine-3-sulfonamide]"
12,162,"CN([C@H](c1ccc(OC(F)F)cc1)C(F)(F)F)S(=O)(=O)c1cncc(C#N)c1 [Example 240, (R)-5-cyano-N-(1-(4-(difluoromethoxy)phenyl)-2,2,2-trifluoroethyl)-N-methylpyridine-3-sulfonamide]"
13,288,"CCN([C@H](c1ccc(F)cc1)C(F)(F)F)S(=O)(=O)c1cccc2[nH]ncc12 [Example 182, (R)—N-ethyl-N-(2,2,2-trifluoro-1-(4-fluorophenyl)ethyl)-1H-indazole-4-sulfonamide]"
14,145,"CN([C@H](c1ccc(F)cc1)C(F)(F)F)S(=O)(=O)c1cncc(F)c1 [Example 223, (R)-5-fluoro-N-methyl-N-(2,2,2-trifluoro-1-(4-fluorophenyl)ethyl)pyridine-3-sulfonamide]"
15,302,"Cc1cc([C@@H](N(C)S(=O)(=O)c2cncc(C#N)c2)C(F)(F)F)ccc1C(F)(F)F [Example 269, (R)-5-cyano-N-methyl-N-(2,2,2-trifluoro-1-(3-methyl-4-(trifluoromethyl)phenyl)ethyl)pyridine-3-sulfonamide]"
16,1000,"CCN([C@H](c1ccc(F)cc1)C(F)(F)F)S(=O)(=O)c1nn(CC)c2ncccc12 [Example 190, (R)—N,1-diethyl-N-(2,2,2-trifluoro-1-(4-fluorophenyl)ethyl)-1H-pyrazolo[3,4-b]pyridine-3-sulfonamide]"
17,31.6,"CN([C@H](c1ccc(C(F)(F)F)cc1)C(F)(F)F)S(=O)(=O)c1cnc2ccccn12 [Example 235, (R)—N-methyl-N-(2,2,2-trifluoro-1-(4-(trifluoromethyl)phenyl)ethyl)imidazo[1,2-a]pyridine-3-sulfonamide]"
